{"source": "paper PMC9328652", "about": "“A novel class of fast‐acting antimalarial agents: Substituted 15‐membered azalides” (British Journal of Pharmacology, 2020)", "key": {"[1]": {"system": "Plasmodium falciparum W2 (chloroquine/pyrimethamine resistant)", "set-up": "method as in Pesic et al. ([2012])", "conditions": "72 h of incubation; ref Pesic et al. ([2012]); cited from earlier work"}, "[2]": {"system": "Plasmodium falciparum 3D7A (sensitive)", "set-up": "method as in Pesic et al. ([2012])", "conditions": "72 h of incubation; ref Pesic et al. ([2012]); cited from earlier work"}, "[3]": {"system": "normal human lung fibroblasts (NHLF)", "assay": "Accumulation and retention in human primary cells, NHLF", "assay_type": "in vitro ADME", "conditions": "mean (SD)", "description": "(§1) Accumulation and retention in human primary cells was determined as described in detail previously (Stepanic et al., [2011]). Briefly, normal human bronchial epithelial cells (NHBE, CC‐2541, Lonza), normal human lung fibroblasts (NHLF, CC‐2512, Lonza), and bronchial smooth muscle cells (BSMC, CC‐2576, Lonza) were cultivated according to the protocols of the suppliers. Human polymorphonuclear cells (PMN) and monocytes from healthy volunteers were isolated from buffy coats. Monocytes were isolated by negative selection on magnetic separator. Monocyte‐derived macrophages (MDM) were obtained by cultivating monocytes with 5 ng·ml^−1 rhGMCSF for 10 days. To determine compound accumulation cells were incubated with 3–10 μM of compounds in their corresponding culture medium for 3 h at 37°C in 5% CO2, washed, and lysed. To measure cellular retention of compounds, after being washed, drug‐loaded cells were incubated in fresh medium for 3 h, washed, and lysed. Compound concentrations were determined by HPLC–MS/MS analysis and expressed as % of azithromycin measurements."}, "[4]": {"assay": "Pharmacokinetic studies in rats", "assay_type": "in vivo, Sprague–Dawley rats", "conditions": "Rat; for half-life / clearance / Vd / bioavailability: male, Sprague-Dawley, whole blood; for half-life: intravenous; for clearance / Vd: iv; for clearance: blood; for Vd: read-out: Vss; for bioavailability: po", "description": "For the in vivo pharmacokinetic study, compound 1 was dosed i.v. at 5 mg·kg^−1 (5 ml·kg^−1 dosing volume) and p.o. at a dose of 25 mg·kg^−1 (10 ml·kg^−1) to male Sprague–Dawley rats (Charles River, France), weighing ~350 g. Compounds 2 and 3 were dosed i.v. at 2 mg·kg^−1 (5 ml·kg^−1 dosing volume) and p.o. at a dose of 10 mg·kg^−1 (10 ml·kg^−1). Rats were fasted for 6–12 h (overnight fasting) prior oral administration. For serial blood sampling, rats (n = 3) dosed with an i.v. bolus of compound had blood collected at the following time points after dosing: 5, 10, 20 40, 60, 120, 240, 480, 1,440, and 1,800 min. Rats (n = 3) dosed orally had blood collected at the following time points after dosing: 15, 30, 60, 120, 240, 360, 480, 1,440, and 1,800 min.\nDosing solutions were prepared in 100% saline both for i.v. and p.o. After both routes of administration, blood samples were collected from the tail vein up to 30 h, haemolysed, and frozen until analysis. […] Subsequently, samples were assayed as described for mouse PK."}, "[5]": {"system": "bronchial smooth muscle cells (BSMC)", "assay": "Accumulation and retention in human primary cells, BSMC", "assay_type": "in vitro ADME", "conditions": "mean (SD)", "description": "as §1"}, "[6]": {"system": "monocyte derived macrophages (MDM)", "assay": "Accumulation and retention in human primary cells, MDM", "assay_type": "in vitro ADME", "conditions": "mean (SD)", "description": "as §1"}, "[7]": {"system": "Plasmodium falciparum W2 (chloroquine/pyrimethamine resistant)", "assay": "[3H]hypoxanthine incorporation antimalarial assay, strain W2", "assay_type": "cell-based", "conditions": "W2, 72 h, read-out: Plasmodium falciparum IC50 W2", "description": "The activity of the test compounds against P. falciparum in vitro was determined using the tritiated hypoxanthine incorporation assay of Desjardins et al. and additionally modified by Milhous and Chulay (Chulay, Haynes, & Diggs, [1983]; Milhous, Weatherly, Bowdre, & Desjardins, [1985]).\nCompounds were dissolved in DMSO and subsequently diluted in the culture medium (RPMI 1640) supplemented with 10% v/v human plasma. Serial 1:2 drug dilutions were prepared in triplicate in microtitre plates. Culture medium supplemented with 10% v/v human plasma and type A Rhesus positive human erythrocytes infected with P. falciparum strains was added to yield a haematocrit of 3% and a parasitaemia of 0.25–0.55%. The plates were incubated at 37°C in a modular incubator flushed with a mixture of 5% oxygen, 3% carbon dioxide, and 92% nitrogen for 48 h, and then [^3H]hypoxanthine was added to give a final concentration of 12.5–16 μCi·ml^−1. After incubation for additional 24 h, particulate matter was harvested on fibreglass strips and hypoxanthine incorporation determined by scintillation spectrophotometry. […] Delayed death experiments were performed by this standard method but extending the incubation time with the drug up to 96 h."}, "[8]": {"system": "panel of five bacterial strains", "assay": "Antibacterial screen, summary over panel of five bacterial strains", "assay_type": "cell-based", "description": "Antibacterial activity of compounds was determined by a standard broth microdilution method (Clinical Laboratory Standard Institute CLSI, [2009]), except that for Streptococcus strains lysed blood was substituted with 5% horse serum in the testing medium. Azithromycin and chloroquine were used as controls. The activities are expressed as minimum inhibitory concentrations (MICs) in units of μg·ml^−1. The compounds have been tested in at least two and up to five independent experiments generating same or similar results (a range of one to two dilutions between tests was considered acceptable which is in accordance to CLSI acceptable quality control ranges). The organisms tested represented macrolide sensitive Gram‐positive pathogens that are mainly targeted by macrolide antibiotics. Tested streptococci were clinical isolates Streptococcus pneumoniae SP030 and Streptococcus pyogenes 3565 from internal strain collection, and other strains were obtained from ATCC bioresource centre, Staphylococcus aureus ATCC13709, Haemophilus influenzae ATCC49247, and Moraxella catarrhalis ATCC23246. Double dilutions of tested compounds were prepared using TECAN Genesis 150. Bacteria were grown on appropriate agar plates (Becton Dickinson, USA)—Columbia agar with 5% sheep blood for streptococci and M. catarrhalis, Mueller‐Hinton chocolate agar for H. influenzae , and Mueller‐Hinton agar for staphylococci."}, "[9]": {"system": "Polymorphonuclear leukocytes (PMN)", "assay": "Accumulation and retention in human primary cells, PMN", "assay_type": "in vitro ADME", "conditions": "mean (SD)", "description": "as §1"}}, "note": "Where two headings read alike, the source gives them in different places."}
{"smiles": "CC[C@H]1OC(=O)[C@H](C)[C@@H](O[C@H]2C[C@@](C)(OC)[C@@H](O)[C@H](C)O2)[C@H](C)[C@@H](O[C@@H]2O[C@H](C)C[C@H](N(C)C)[C@H]2O)[C@](C)(O)C[C@@H](C)CN(C)[C@H](C)[C@@H](O)[C@]1(C)O", "note": "[Azithromycin, reference compound]", "values": [{"measurement": "IC50", "setting": "[1]", "result": 2680, "unit": "nM"}, {"measurement": "IC50", "setting": "[2]", "result": 11500, "unit": "nM"}]}
{"smiles": "CC[C@H]1OC(=O)[C@H](C)[C@@H](O[C@H]2C[C@@](C)(OC)[C@@H](O)[C@H](C)O2)[C@H](C)[C@@H](O[C@@H]2O[C@H](C)C[C@H](N(C)C)[C@H]2O)[C@](C)(O)C[C@@H](C)CN(CCCNc2ccnc3cc(Cl)ccc23)[C@H](C)[C@@H](O)[C@]1(C)O", "note": "[Compound 1]", "values": [{"measurement": "accumulation", "setting": "[3]; 3 h", "result": "100 (11) % azithromycin"}, {"measurement": "retention", "setting": "[3]; 3 h in fresh medium", "result": "85 (3) % azithromycin"}, {"measurement": "DNAUCPO", "setting": "[4]; p.o. 25 mg·kg^−1, mean (SD)", "result": "169 (21) ng*h·ml^−1·mg^−1·kg^−1"}, {"measurement": "half-life", "setting": "[4]; i.v. 5 mg·kg^−1 / p.o. 25 mg·kg^−1, mean (SD)", "result": 23.3, "unit": "h"}, {"measurement": "clearance", "setting": "[4]; i.v. 5 mg·kg^−1, mean (SD)", "result": 2.4, "unit": "mL/min/kg"}, {"measurement": "Vd", "setting": "[4]; i.v. 5 mg·kg^−1, mean (SD)", "result": 3.8, "unit": "L/kg"}, {"measurement": "bioavailability", "setting": "[4]; i.v. 5 mg·kg^−1, p.o. 25 mg·kg^−1, mean (SD)", "result": 2.3, "unit": "%"}, {"measurement": "accumulation", "setting": "[5]; 3 h", "result": "148 (77) % azithromycin"}, {"measurement": "retention", "setting": "[5]; 3 h in fresh medium", "result": "118 (19) % azithromycin"}, {"measurement": "accumulation", "setting": "[6]; 3 h", "result": "118 (21) % azithromycin"}, {"measurement": "retention", "setting": "[6]; 3 h in fresh medium", "result": "94 (0) % azithromycin"}, {"measurement": "IC50", "setting": "[7]", "result": 27, "unit": "nM"}, {"measurement": "antibacterial activity (in words)", "setting": "[8]", "result": "inhibited the growth of whole cell bacteria"}, {"measurement": "accumulation", "setting": "[9]; 3 h", "result": "127 (36) % azithromycin"}, {"measurement": "retention", "setting": "[9]; 3 h in fresh medium", "result": "101 (19) % azithromycin"}]}
{"smiles": "CC[C@H]1OC(=O)[C@H](C)[C@@H](O)[C@H](C)[C@@H](O[C@@H]2O[C@H](C)C[C@H](N(C)C)[C@H]2OCCCNc2ccnc3ccccc23)[C@](C)(O)C[C@@H](C)CN[C@H](C)[C@@H](O)[C@]1(C)O", "note": "[Compound 3]", "values": [{"measurement": "DNAUCPO", "setting": "[4]; oral gavage 10 mg·kg^−1, mean (SD)", "result": "36.2 (29) ng*h·ml^−1·mg^−1·kg^−1"}, {"measurement": "half-life", "setting": "[4]; i.v. 2 mg·kg^−1 / p.o. 10 mg·kg^−1, mean (SD)", "result": 18.8, "unit": "h"}, {"measurement": "clearance", "setting": "[4]; i.v. 2 mg·kg^−1, mean (SD)", "result": 4, "unit": "mL/min/kg"}, {"measurement": "Vd", "setting": "[4]; i.v. 2 mg·kg^−1, mean (SD)", "result": 6.3, "unit": "L/kg"}, {"measurement": "bioavailability", "setting": "[4]; i.v. 2 mg·kg^−1, p.o. 10 mg·kg^−1, mean (SD)", "result": 1, "unit": "%"}, {"measurement": "IC50", "setting": "[7]", "result": 27, "unit": "nM"}, {"measurement": "antibacterial activity (in words)", "setting": "[8]", "result": "no antibacterial activity"}]}
